Residues, ends and D or L forms follow the SMILES beside them. No end group written: not given here.
How the values were obtained:
[1] = Solubility of peptides in sodium acetate-imidazole buffer; assay type: physicochemical; set-up: key: Soluble: totally soluble; Cloudy: cloudy: no totally soluble; conditions: 0.2 wt.% in 10 mM sodium acetate - 10 mM imidazole buffer (pH 7); shaken 2 h at 50 °C and overnight at room temperature; visual
Protocol: (§1) Emulsions were produced as reported in our previous work[31]. A total amount of 2 g of 5 wt.% fish oil-in-water emulsion stabilized with 0.2 wt.% potato peptides was produced. Peptides (0.2 wt.%) were dissolved in 10 mM sodium acetate – 10 mM imidazole buffer (pH 7). For that, the peptide solutions were shaken (100 rpm) for 2 h in water bath at 50 °C and overnight at room temperature to allow complete solubilization and rehydration of the peptides (when possible). Primary homogenization was done by adding the fish oil to the peptide-buffer solution and mixing at 18,000 rpm for 30 s by using a POLYTRON PT1200E (Kinematic Inc., New York, USA). Secondary homogenization was done using a MICROSON XL2000 sonicator equipped with a P1 probe (Misonix, Inc., New York, USA). Emulsions were homogenized at an amplitude of 75% (maximum amplitude of 180 μm), running 2 passes of 30 s with a break of 1 min between passes. During sonication the emulsions were surrounded by iced water to minimize the increase in temperature. […] All emulsions were produced and tested in triplicate.
Among the 38 peptides tested, 14 peptides were not totally soluble resulting in cloudy aqueous phases (e.g. no transparent solutions were obtained and white peptides particles could be observed). […] Differences in pH are due to the acidic impurities present in the synthetic peptides used, and to the insufficient capacity of the buffer employed to keep pH constant at 7. Nonetheless, sodium acetate-imidazole buffer was preferred to phosphate buffer in order to avoid interferences of phosphate buffer in oxidative stability studies as consequence of its chelating activity.

[2] = Oxidative stability of emulsions by ESR (PBN-lipid spin adducts); conditions: 5 wt.% fish oil-in-water emulsions; for oxidative stability of emulsion (generation of PBN-lipid spin adducts, in words, Fig. 4): storage 6 days in the dark at both 20 and 37 °C; for oxidative stability of emulsion at 20 °C compared to α-10, α-12 and γ-1 (in words): storage at 20 °C
Protocol: Oxidative stability of emulsions prepared with selected peptides was studied by electron spin resonance (ESR)[31]. ESR analysis was carried out using a benchtop MINISCOPE MS 5000 ESR spectrometer (MAGNETTECH GMBH, Germany). The instrument settings were as follows: magnetic field 320–360 mT, sweep time 60 s, modulation 0.2 mT and frequency 100 kHz. Emulsions were produced as described in section 2.3.1.2 and PBN was added as an ethanol solution (concentration of 50 mg/mL) to have 30 mM of PBN in the oil phase of the emulsion. The oxidative stability of the emulsions was determined during 6 days storage at 20 or 37 °C and samples were measured at days 0, 1 (only for 37 °C), 2, 4 and 6. For each sampling point, emulsion samples (50 μL) were transferred to borosilicate capillary tubes before they were introduced to the cavity of the ESR. Analyses were performed in triplicate at room temperature.

[3] = Zeta potential of emulsions; assay type: physicochemical; conditions: 5 wt.% fish oil-in-water emulsion, 0.2 wt.% peptide; after one day of storage; 10 μL emulsion in 5 mL buffer; 25 °C; mean ± SD, triplicate
Protocol: as §1
The zeta potential of the emulsions was measured after one day of storage in a ZETASIZER NANO ZS (Malvern instruments Ltd., Worcestershire, UK) with a DTS1070 cell at 25 °C[31]. […] The zeta potential range was set to −100 to +50 mV and the samples were analyzed with 100 runs. […]

[4] = Iron (Fe2+) chelating activity; assay type: biochemical; conditions: 0.2 wt.% at pH 7; data not shown
Protocol: Peptides were dissolved in 10 mM sodium acetate - 10 mM imidazole buffer (pH 7) at 0.2 wt.%. 1 1,1-Diphenyl-2-picrylhydrazyl (DPPH) radical scavenging activity, iron (Fe^2+) chelating activity and ferric (Fe^3+) reducing power were measured as described elsewhere.

[5] = pH of peptide-stabilized emulsions; assay type: physicochemical; conditions: 5 wt.% fish oil-in-water emulsion stabilized with 0.2 wt.% peptide in 10 mM sodium acetate - 10 mM imidazole buffer (pH 7)
Protocol: as §1
Among the 38 peptides tested, 14 peptides were not totally soluble resulting in cloudy aqueous phases (e.g. no transparent solutions were obtained and white peptides particles could be observed). […]

[6] = Qualitative observation of creaming of emulsions; assay type: physicochemical; set-up: key: 1: no creaming; 2: creaming; 3: oil layer above the emulsion; 4: phase separation
Protocol: as §1
(§2) The droplet size distribution of the emulsions was measured by laser diffraction in a MASTERSIZER 2000 (Malvern Instruments, Ltd., Worcestershire, UK) at days 0, 1, 3 and 6 during storage in dark at room temperature (~22 °C)[31]. Each emulsion was diluted in recirculating water (3000 rpm), until it reached an obscuration of 12%. The refractive indices of sunflower oil (1.469) and water (1.330) were used as particle and dispersant, respectively. Results are given in volume mean diameter (D4,3). Measurements were made in triplicate. Due to the low volume of emulsions produced, creaming was determined qualitatively by observing the appearance of the emulsions. Peptides forming emulsions with small droplet sizes and no creaming were selected for further study.

[7] = Droplet size of emulsions by laser diffraction; assay type: physicochemical; conditions: mean ± SD, triplicate
Protocol: as §1, §2

Compound: KYDGKYLMQVLQE [α-17]
- Solubility of peptides [1]: Cloudy

Compound: SSDDQFCLKVGVV [γ-40]
- Solubility of peptides [1]: Cloudy
- oxidative stability of emulsion (generation of PBN-lipid spin adducts, in words, Fig. 4) [2]: highest oxidative stability

Compound: Sodium caseinate
- Solubility of peptides [1]: Soluble
- Zeta potential (mV) [3]: −41.5 ± 1.1 mV
- oxidative stability of emulsion (generation of PBN-lipid spin adducts, in words, Fig. 4) [2]: highest oxidative stability
- Fe2+ chelating activity [4]: 98.5 ± 0.2%
- pH of emulsion [5]: 6.9
- Observations Day 0 (creaming) ([6]; appearance of 5 wt.% fish oil-in-water emulsion, 0.2 wt.% peptide, day 0): 1
- Observations Day 1 (creaming) ([6]; appearance of emulsion, day 1 of storage at ~22 °C): 1
- Observations Day 6 (creaming) ([6]; appearance of emulsion, day 6 of storage at ~22 °C): 1
- D4,3 (μm) Day 1 ([7]; as Day 0, day 1 of storage in dark at room temperature (~22 °C)): 1.1 ± 0.2 μm
- D4,3 (μm) Day 3 ([7]; as Day 0, day 3 of storage in dark at room temperature (~22 °C)): 0.9 ± 0.2 μm
- D4,3 (μm) Day 6 ([7]; as Day 0, day 6 of storage in dark at room temperature (~22 °C)): 1.0 ± 0.2 μm
- D4,3 (μm) Day 0 ([7]; volume mean diameter, 5 wt.% fish oil-in-water emulsion, 0.2 wt.% peptide, pH 7 buffer, laser diffraction, day 0): 1.1 ± 0.2 μm

Compound: IPATILEFLEGQLQEVDNN [α-15]
- Solubility of peptides [1]: Soluble

Compound: KKPVSKDSPETYEEALKRFAKLLSDRKKL [α-10]
- Solubility of peptides [1]: Soluble
- oxidative stability of emulsion (generation of PBN-lipid spin adducts, in words, Fig. 4) [2]: lowest oxidative stability

Compound: LLTAMITTPNENNRP [γ-37]
- Solubility of peptides [1]: Soluble

Compound: IGSSSHFGPHIFEGELLNIQFDIS [β-29]
- Solubility of peptides [1]: Cloudy

Compound: VHQNGKRRLALVKDNPLDVSFK [β-28]
- Solubility of peptides [1]: Soluble

Compound: LNIQFNIPTPKLC [β-27]
- Solubility of peptides [1]: Cloudy
- oxidative stability of emulsion (generation of PBN-lipid spin adducts, in words, Fig. 4) [2]: highest oxidative stability

Compound: DDNFCAKVGVVIQ [β-30]
- Solubility of peptides [1]: Cloudy

Compound: GKELDPRLSYRI [β-26]
- Solubility of peptides [1]: Soluble

Compound: KYLMQVLQEKL [α-19]
- Solubility of peptides [1]: Soluble

Compound: HQNGKRRLALV [γ-39]
- Solubility of peptides [1]: Soluble

Compound: DTNGKELNPNSSYRIISIGRGALGGDVYL [γ-42]
- Solubility of peptides [1]: Cloudy

Compound: VGVVIQNGKRR [γ-45]
- Solubility of peptides [1]: Soluble

Compound: ELDSRLSYRIISTFWGALGGDVYL [β-21]
- Solubility of peptides [1]: Cloudy

Compound: GIIPATILEFLEGQLQEVDNN [γ-48]
- Solubility of peptides [1]: Soluble

Compound: DNFCAKVGVVIQNGKRR [γ-44]
- Solubility of peptides [1]: Cloudy

Compound: FDVIGGTSTGGLLTAMITTPNENNRP [γ-36]
- Solubility of peptides [1]: Soluble
- oxidative stability of emulsion (generation of PBN-lipid spin adducts, in words, Fig. 4) [2]: highest oxidative stability

Compound: TPNENNRPFAAAKDIV [γ-47]
- Solubility of peptides [1]: Soluble

Compound: NPNSSYRIISI [γ-43]
- Solubility of peptides [1]: Soluble

Compound: LNIQFNI [β-24]
- Solubility of peptides [1]: Cloudy

Compound: KYLMQVLQEKLGE [α-18]
- Solubility of peptides [1]: Cloudy

Compound: KDNPETYEEALKRFAKLLS [γ-41]
- Solubility of peptides [1]: Soluble

Compound: DSPETYEEALKRFAKLLSD [α-12]
- Solubility of peptides [1]: Soluble
- oxidative stability of emulsion (generation of PBN-lipid spin adducts, in words, Fig. 4) [2]: lowest oxidative stability

Compound: NRPFAAAKDIVPFYFEHGPHIFN [α-13]
- Solubility of peptides [1]: Soluble

Compound: FIPLSTNIFEDQLLNIQFNIPT [β-23]
- Solubility of peptides [1]: Cloudy

Compound: CC[C@H](C)[C@H](NC(=O)[C@@H](NC(=O)[C@@H](NC(=O)CNC(=O)[C@@H](NC(=O)[C@H](CCCCN)NC(=O)[C@H](C)NC(=O)[C@H](CS)NC(=O)[C@H](Cc1ccccc1)NC(=O)[C@H](CC(N)=O)NC(=O)[C@H](CC(=O)O)NC(=O)[C@H](CC(=O)O)NC(=O)[C@H](CCCNC(=N)N)NC(=O)[C@@H](N)CS)C(C)C)C(C)C)C(C)C)C(=O)O [γ-34] (H-CRDDNFCAKVGVVI-OH)
- Solubility of peptides [1]: Cloudy

Compound: LGGDVYLGKSPNSDAPCP [β-31]
- Solubility of peptides [1]: Soluble

Compound: GIKGIIPAIILEFLEGQLQEVDNNKDAR [γ-1]
- Solubility of peptides [1]: Soluble
- oxidative stability of emulsion (generation of PBN-lipid spin adducts, in words, Fig. 4) [2]: lowest oxidative stability

Compound: ELDSRLSYRIISTFWGALGGDVYLGKSPN [β-20]
- Solubility of peptides [1]: Cloudy

Compound: CC(C)C[C@H](NC(=O)[C@H](CS)NC(=O)[C@H](Cc1ccccc1)NC(=O)[C@H](CCC(N)=O)NC(=O)[C@H](CC(=O)O)NC(=O)[C@H](CC(=O)O)NC(=O)[C@H](CO)NC(=O)[C@H](CO)NC(=O)[C@H](Cc1ccccc1)NC(=O)[C@@H]1CCCN1C(=O)[C@@H](N)CS)C(=O)N[C@@H](CCCCN)C(=O)N[C@H](C(=O)NCC(=O)N[C@H](C(=O)O)C(C)C)C(C)C [β-22] (H-CPFSSDDQFCLKVGV-OH)
- Solubility of peptides [1]: Soluble
- oxidative stability of emulsion at 20 °C compared to α-10, α-12 and γ-1 (in words) [2]: significantly more oxidatively stable

Compound: AKDIVPFYFEHGPHIFN [α-14]
- Solubility of peptides [1]: Soluble

Compound: EALKRFAKLLSD [α-11]
- Solubility of peptides [1]: Soluble

Compound: FCLKVGVVHQNGKRRLALVKDNP [γ-38]
- Solubility of peptides [1]: Soluble
- oxidative stability of emulsion at 20 °C compared to α-10, α-12 and γ-1 (in words) [2]: significantly more oxidatively stable

Compound: RDDNFCAKVGVVI [γ-35]
- Solubility of peptides [1]: Cloudy

Compound: FAKLLSDRKKLRANK [γ-46]
- Solubility of peptides [1]: Soluble

Compound: FCLKVGVIHQNGKRRLALVK [γ-49]
- Solubility of peptides [1]: Soluble
- oxidative stability of emulsion (generation of PBN-lipid spin adducts, in words, Fig. 4) [2]: highest oxidative stability

Compound: ILEFLEGQLQEVDN [α-16]
- Solubility of peptides [1]: Soluble

From article PMC6971092, “Identification of emulsifier potato peptides by bioinformatics: application to omega-3 delivery emulsions and release from potato industry side streams” (Scientific Reports, 2020)
